How the values were obtained:
[1] = Free Ca2+ after addition of test substance, fluorimetric with FURA 2; assay type: physicochemical; details: free Ca²⁺ after addition of 1 mmol (1 mM) test substance; pH 7,1; control without fatty acid 200
Experimental: Die erfindungsgemäßen alpha-Hydroxyfettsäuren haben gegenüber Schwermetallionen, z.B. Fe²⁺ oder Erdalkali-Ionen wie Ca²⁺ eine hohe Bindungsfähigkeit, wie die folgende Untersuchung zeigt: a) Konzentration an freiem Ca²⁺ nach Zugabe von 1 mmol Testsubstanz
(§1) Der Testpuffer (100 mM KCl, 10 mM HEPES, 1 mM EGTA 0,5 mM CaCl₂, pH 7,1) wurden mit je 1 mM der Testsubstanz versetzt. Entstehende Niederschläge wurden abfiltriert. Das Filtrat wurde mit KOH auf pH 7,1 eingestellt und mit 1 µM FURA 2 versetzt. Die Konzentration an Ca²⁺ wurde fluorimetrisch bestimmt (Anregung 340 nm, 359 nm, 380 nm, Emission 510 nm). b) Konzentration an freiem Fe²⁺ nach Zugabe von 1 mmol alpha-Hydroxypalmitinsäure

[2] = Free Fe2+ after addition of test substance, photometric with 2,2'-Bipyridin; assay type: physicochemical; details: 1 mmol test substance mixed with 1 mmol Fe²⁺
Experimental: as §1
1 mmol Testsubstanz wurde mit 1 mmol Fe²⁺ versetzt. Entstehende Niederschläge wurden abfiltriert. Die Filtrate wurden mit 2,2'-Bipyridin versetzt und bei 565 nm photometrisch vermessen.

Corynebacterium xerosis = test: Minimal inhibitory concentration; assay type: cell-based; details: 72 h incubation
Experimental: (§2) Bestimmung der minimalen Hemmkonzentration Eine frische Übernachtkultur des Testorganismus wurde 1:10⁴ in Nährmedium (5 g/ltr Tryptone, 3 g/ltr Hefeextrakt, pH 7,0) verdünnt und 3h inkubiert (30° C, 250 rpm). Anschließend wurde alpha-Hydroxy-palmitinsäure (D) in einer Endkonzentration von 2,0%; 1,5%; 1,0%; 0,75%; 0,5%; 0,25%; 0,1% und 0,06% zugegeben. Nach 72 h Inkubationszeit wurden der Bakterientiter durch Verdünnung und Ausplattierung überprüft. Bei den Ansätzen, bei denen keine Bakterien nachweisbar waren, wurde 1 ml des Ansatzes mit 9 ml Nährmedium versetzt und über Nacht inkubiert (30° C, 250 rpm). […]

Pseudomonas aeruginosa = test: Minimal inhibitory concentration; assay type: cell-based; details: 72 h incubation
Experimental: as §2

[3] = tested on: Staphylococcus epidermidis; test: Minimal inhibitory concentration; assay type: cell-based; details: 72 h incubation
Experimental: as §2

Klebsiella pneumoniae = test: Minimal inhibitory concentration; assay type: cell-based; details: 72 h incubation
Experimental: as §2

Pseudomonas putida = test: Minimal inhibitory concentration; assay type: cell-based; details: 72 h incubation
Experimental: as §2

[4] = tested on: Acinetobacter calcoaceticus; test: Minimal inhibitory concentration; assay type: cell-based; details: 72 h incubation
Experimental: as §2

Escherichia coli = test: Minimal inhibitory concentration; assay type: cell-based; details: 72 h incubation
Experimental: as §2

Salmonella livingstone = test: Minimal inhibitory concentration; assay type: cell-based; details: 72 h incubation
Experimental: as §2

Micrococcus luteus = test: Minimal inhibitory concentration; assay type: cell-based; details: 72 h incubation
Experimental: as §2

Structure (SMILES)	Konz. Ca²⁺ [1] [nmol]	Konz. Fe²⁺ [2] [µmol]	other results
CCCCCCCCCCCCCCCC(=O)O [Palmitinsäure]	249		
O=C(O)C(O)c1ccccc1 (stereo not shown) [Mandelsäure]	200	100	
CCCCCCCCCCCCCC(=O)O [Myristinsäure]	233		
CCCCCCCCCCCCCCC(O)C(=O)O (stereo not drawn) [alpha-Hydroxypalmitinsäure]	38	20	
CCCCCCCCCCCCC(O)C(=O)O (stereo not drawn) [alpha-Hydroxy-myristinsäure]	32		
O=C(O)CC(O)(CC(=O)O)C(=O)O [Citronensäure]	139	110	
O=C(O)CN(CCN(CC(=O)O)CC(=O)O)CC(=O)O [EDTA]	25		
CCCCCCCCCCCCCC[C@@H](O)C(=O)O [alpha-OH-Hexadecansäure (D), alpha-Hydroxy-hexadecansäure]			Minimale Hemmkonzentration (Corynebacterium xerosis): 0,10%; Minimale Hemmkonzentration (Pseudomonas aeruginosa): 0,25%; Minimale Hemmkonzentration [3]: 0,10%; Minimale Hemmkonzentration (Klebsiella pneumoniae): 0,50%; Minimale Hemmkonzentration (Pseudomonas putida): 0,10%; Minimale Hemmkonzentration [4]: 0,75%; Minimale Hemmkonzentration (Escherichia coli): 0,50%; Minimale Hemmkonzentration (Salmonella livingstone): 0,50%; Minimale Hemmkonzentration (Micrococcus luteus): 0,25%

Source: patent EP0556660A1, “Utilisation of fatty alpha-hydroxy acids and the compositions containing them” (Beiersdorf Aktiengesellschaft, priority 1992, dated 1993)
